The source of these data is patent publication US10682319B2, “Necrosis inhibitors” (National Institute of Biological Sciences, Beijing, priority 2014, dated 2020).

Molecules are shown by their SMILES. Where two headings read alike, the source gives them in different places.

Experiment [1] concerns the target T1, Recombinant full-length RIPK1 protein with N-terminal GST-tag (hRIP1 kinase) (Homo sapiens, UniProt Q13546).
T1 construct: Recombinant full-length RIPK1 protein with N-terminal GST-tag; GST (N); purchased SignalChem R07-34G
T1 sequence (Q13546 1-671): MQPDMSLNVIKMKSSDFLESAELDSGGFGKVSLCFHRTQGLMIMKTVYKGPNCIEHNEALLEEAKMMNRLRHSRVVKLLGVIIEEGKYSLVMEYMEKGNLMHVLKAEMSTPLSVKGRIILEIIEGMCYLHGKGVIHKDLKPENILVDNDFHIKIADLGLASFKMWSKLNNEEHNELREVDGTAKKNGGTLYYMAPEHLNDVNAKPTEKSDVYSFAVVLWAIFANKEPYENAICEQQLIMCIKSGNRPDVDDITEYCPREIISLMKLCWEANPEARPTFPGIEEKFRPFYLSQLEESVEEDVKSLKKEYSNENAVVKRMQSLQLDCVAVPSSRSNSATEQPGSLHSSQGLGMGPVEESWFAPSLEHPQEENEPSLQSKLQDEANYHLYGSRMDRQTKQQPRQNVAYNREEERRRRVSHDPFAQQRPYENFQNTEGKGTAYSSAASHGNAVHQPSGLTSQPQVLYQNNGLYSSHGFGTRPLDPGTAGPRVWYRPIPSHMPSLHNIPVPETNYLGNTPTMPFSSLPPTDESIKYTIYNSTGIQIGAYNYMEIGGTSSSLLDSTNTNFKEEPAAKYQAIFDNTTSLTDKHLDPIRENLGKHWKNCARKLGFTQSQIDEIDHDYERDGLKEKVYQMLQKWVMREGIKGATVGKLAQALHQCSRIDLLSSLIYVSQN
Description: Kinase assay of RIPK1 (ADP-Glo). Format: biochemical. The conditions noted are these: for IC50: RIPK1 161 nM, ATP 50 uM, MBP 20 uM, 90 min. The procedure:
Recombinant full-length RIPK1 protein with N-terminal GST-tag (Cat # R07-34G) was purchased from SignalChem. The ADP-Glo™ kinase assay kit (Cat # V9102) was from Promega. MBP (cat # M2295) protein and all the other chemicals were from Sigma. The 384-well assay plates (Cat #3674, white, opaque) were purchased from Corning.
Kinase activity assay and data analysis: The RIPK1 kinase assay was performed in white 384-well plate. The assay buffer contained 25 mM HEPES (pH7.2), 20 mM MgCl2, 12.5 mM MnCl2, 5 mM EGTA, 2 mM EDTA, 12.5 mM β-glycerol phosphate and 2 mM DTT. RIPK1 was first incubated with compounds or DMSO control for 15 min, then ATP/MBP substrate mixture was added to initiate the reaction. The final concentration of RIPK1 was 161 nM, while the final concentration of ATP was 50 uM, and MBP 20 uM. After 90 min reaction at room temperature, the ADP-Glo reagent and detection solution were added following the technical manual of ADP-Glo™ kinase assay kit (Promega). The luminescence was measured on PerkinElmer Enspire. The data was analyzed using Graphpad Prism (GraphPad Software; www.graphpad.com). The curves were fitted using a non-linear regression model with a sigmoidal dose response.
In general terms: ADP-Glo turns the ADP formed in a reaction into a luminescent signal.

In the next experiment the test system is HT-29 cells. Description: Necrosis assay (TNF-α/Smac mimetic/z-VAD induced necrosis, cell viability by ATP level). The format is cell-based. A digest of the protocol:
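Necrosis induced by 20 ng/ml TNF-α, 100 nM Smac mimetic and […], with compound added concurrently for 24 h. Viability read as ATP luminescence (CellTiter-Glo), normalized to DMSO-treated cells; duplicates.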

[2] abbreviates: Homo sapiens, HT-29, 24 h, HT-29, TNF-α + Smac mimetic + z-VAD, 24 hrs, ATP level, values given as ranges in uM, read-out: EC50 (inhibition of necrosis in HT-29 cells).
Where [3] appears, read: Homo sapiens, HT-29, cell necrosis assay, exemplary data table, read-out: Cell viability assay, EC50.
Where [4] appears, read: HT-29, TNF-α + Smac mimetic + z-VAD, 24 hrs, ATP level, values given as ranges in nM, read-out: EC50 (inhibition of necrosis in HT-29 cells).

The inhibition is the change of the read-out against control, counted positive when it falls. For orientation: EC50 means the concentration at which the effect is half-maximal. `CCC(C)(C)C(=O)N(C)Cc1ccccc1Cl` [Compound 14, N-(2-chlorobenzyl)-N,2,2-trimethylbutanamide]: the inhibition at 2 µM in experiment [1] (at 2uM compound) turned out to be 66%. For the same molecule, the concentration giving a half-maximal response (EC50) with HT-29 cells (setting [2]) is 1 to 10 µM; in the experiment with HT-29 cells (setting [3]), 3.28 µM.

As a reminder, the IC50 is the midpoint of a concentration-inhibition curve. Regarding `CCC(C)(C)C(=O)N(O)Cc1ccccc1` [Compound 92, N-benzyl-N-hydroxy-2,2-dimethylbutanamide], the 50% inhibitory concentration (IC50) in experiment [1] was 13.2 nM. Moreover, the EC50 in the experiment with HT-29 cells (setting [4]) is 0.001 to 1 µM; in the experiment with HT-29 cells (setting [3]) it was 0.0284 µM.

As for `CCC(C)(C)C(=O)N(C)Cc1cccc(F)c1` [Compound 16, N-(3-fluorobenzyl)-N,2,2-trimethylbutanamide], the half-maximal inhibitory concentration (IC50) in experiment [1] came out at 52 nM. The EC50 in the experiment on HT-29 cells (setting [4]) was in the range of 0.001 to 1 µM.

Consider `CCC(C)(C)C(=O)N(C)Cc1cc(F)cc(F)c1F` [Compound 75, N,2,2-trimethyl-N-(2,3,5-trifluorobenzyl)butanamide], for which, in experiment [1], the IC50 was found to be 33 nM. Further, in the experiment with HT-29 cells (setting [4]), the EC50 lay within 0.001 to 1 µM.

For the molecule `CN(Cc1cc(F)cc(F)c1F)C(=O)C(C)(C)C` [Compound S2, N-methyl-N-(2,3,5-trifluorobenzyl)pivalamide], in the experiment with HT-29 cells (setting [4]), the EC50 is 0.001 to 1 µM.

For `CN(Cc1ccccc1F)C(=O)c1ccccc1` [Compound 61, N-(2-fluorobenzyl)-N-methylbenzamide], in the experiment with HT-29 cells (setting [2]), the concentration giving a half-maximal response (EC50) was 1 to 100 µM.

Consider `CON(Cc1cc(F)c(F)cc1F)C(=O)C(C)(C)C(C)(F)F` [Compound S18], for which the EC50 in the experiment with HT-29 cells (setting [2]) is 1 to 100 µM.

Turning to `CCC(C)(C)C(=O)N(C)Cc1cc(F)ccc1Br` [Compound 56, N-(2-bromo-5-fluorobenzyl)-N,2,2-trimethylbutanamide], the 50% effective concentration (EC50) in the experiment on HT-29 cells (setting [2]) lay in the range of 1 to 10 µM.

With `CC(F)(F)C(C)(C)C(=O)N(O)Cc1ccccc1` [Compound S6, N-benzyl-3,3-difluoro-N-hydroxy-2,2-dimethylbutanamide], the EC50 with HT-29 cells (setting [4]) fell in the range of 0.001 to 1 µM.

Turning to `CC(F)(F)C(C)(C)C(=O)N(O)Cc1ccc(F)cc1` [Compound S9], the EC50 in the experiment on HT-29 cells (setting [2]) fell in the range of 1 to 100 µM.

On to `CCNC(=O)C[C@H](NC(=O)C(C)(C)CC)c1ccccc1` [Compound 103, (S)—N-(3-(ethylamino)-3-oxo-1-phenylpropyl)-2,2-dimethylbutanamide], for which the EC50 in the experiment on HT-29 cells (setting [2]) is 1 to 100 µM.

As to `CC(F)(F)C(C)(C)C(=O)N(O)Cc1ccc(F)cc1F` [Compound S10], the EC50 in the experiment with HT-29 cells (setting [2]) was in the range of 1 to 100 µM.

Take `CCC(C)(C)C(=O)N(O)Cc1cc(F)c(F)c(F)c1` [Compound 99, N-hydroxy-2,2-dimethyl-N-(3,4,5-trifluorobenzyl)butanamide]: the IC50 in experiment [1] was found to be 29.6 nM. The 50% effective concentration (EC50) was 0.001 to 1 µM in the experiment on HT-29 cells (setting [4]) and 0.0457 µM in the experiment with HT-29 cells (setting [3]).
